According to paper PMC2749132 (The Journal of Biological Chemistry, 2009):

Target: T1, MBP-MtHPS (MtHPS, HPS, halimadienyl-diphosphate synthase, Rv3377c) (Mycobacterium tuberculosis, UniProt O50406)
T1 sequence (O50406 1-501): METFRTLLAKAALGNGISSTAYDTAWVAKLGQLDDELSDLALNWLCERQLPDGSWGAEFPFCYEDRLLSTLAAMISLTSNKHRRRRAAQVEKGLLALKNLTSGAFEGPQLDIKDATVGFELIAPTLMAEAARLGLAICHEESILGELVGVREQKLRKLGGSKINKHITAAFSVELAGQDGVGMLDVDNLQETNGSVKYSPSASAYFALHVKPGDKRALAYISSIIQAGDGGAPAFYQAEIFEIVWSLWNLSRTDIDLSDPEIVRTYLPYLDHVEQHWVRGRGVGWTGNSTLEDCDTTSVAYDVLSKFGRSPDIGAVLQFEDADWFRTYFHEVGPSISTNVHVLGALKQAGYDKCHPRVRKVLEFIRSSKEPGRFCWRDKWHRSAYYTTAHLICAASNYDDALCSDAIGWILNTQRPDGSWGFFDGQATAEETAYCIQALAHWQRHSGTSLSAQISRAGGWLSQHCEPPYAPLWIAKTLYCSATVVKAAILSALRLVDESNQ
Assay: GC-FID conversion of GGPP to HPP, substrate inhibition equation
Assay type: biochemical
Details: 0.1 mM Mg2+, pH 7.75, 25 nM enzyme, 1 min

## CC(C)=CCC/C(C)=C/CC/C(C)=C/CC/C(C)=C/COP(=O)(O)OP(=O)(O)O [1a, GGPP]
  Ki: 18 ± 6 µM
